In brackets after ≈: the same amount, converted by molar mass.
How the values were obtained:
Assay type in all cases: cell-based
[1] = system: human leukemia cell line HL-60; assay: In vitro antitumor/anticancer testing (CCK-8), HL-60; conditions: Homo sapiens, HL-60, 48 h
Description: (§1) Each of Tea Product 1 and Conventional Tea Product obtained in section A of this example was used to prepare test tea samples according to the method described below. A proper amount of the respective tea product was added into sterile water to prepare a stock solution with a concentration of 100 mg/mL, followed by using a membrane filter with a pore size of 0.22 μm to conduct vacuum filtration and sterilization. The resulting stock solution was diluted with a respective complete medium shown in Table 3 below to form test tea samples with different concentrations. In other words, the thus obtained test tea samples to be used for treating a respective cancer/tumor cell line shown in Table 3 were prepared using the same complete medium as that for the respective cancer/tumor cell line. […] Specifically, each of the aforesaid commercially available agents was subjected to the method described below to prepare comparative test samples. A proper amount of a respective commercially available agent was dissolved in phosphate-buffered saline (PBS) to prepare a stock solution with a concentration of 5 mg/mL, followed by using a membrane filter with a pore size of 0.22 μm to conduct vacuum filtration and sterilization. The resulting stock solution was diluted with a respective complete medium shown in Table 3 below to form comparative test samples with different concentrations. To be specific, the comparative test samples prepared from the respective commercially available agent have the concentrations shown in Table 2 below. The thus obtained comparative test samples to be used for treating a respective cancer/tumor cell line shown in Table 3 were prepared using the same complete medium as that for the respective cancer/tumor cell line. […] The cultivation of each cancer/tumor cell line is described as follows. […] Afterwards, a cell suspension having a cell density of 1.0×10^4 cells/mL was prepared. […] As experimental groups, the tumor/cancer cells of each cell line were treated with the test tea samples prepared from one or more of the tea products and the comparative test samples prepared from one or more of the commercially available agents as obtained in section B of this example (for more detailed information about the tea product(s) and the commercially available product (s) used to treat each cell line, please see Table 4 below). To be specific, 6 to 10 test tea samples prepared from the same tea product and having different concentrations, as well as 6 to 10 comparative test samples prepared from the same commercially available agent and having different concentrations, were utilized to treat the tumor/cancer cells of each cell line. For each experimental group, 6 repetitions of tumor/cancer treatment were performed. For the control group, 100 μL of PBS was added to a well containing the medium and the cancer/tumor cells of the respective cell line. For the blank group, 100 μL of PBS was added to a well containing a complete medium the same as that used for cultivation of the cancer/tumor cells of the respective cell line. After the treatment described above, cultivation was conducted in an incubator (37° C., 100% relative humidity, 5% CO2) for 48 hours. Subsequently, the liquid containing the medium and the sample in the well was removed, and a respective complete medium (shown in Table 3 above) containing 10% CCK-8 (Cell Counting Kit-8)(Dojindo Molecular Technologies, Inc., Cat. No. CK04-13) was added. Cultivation was performed in an incubator (37° C.) for 2 to 4 hours, followed by gently shaking.

[2] = system: human ovarian cancer cell line SK-OV-3; assay: In vitro antitumor/anticancer testing (CCK-8), SK-OV-3; conditions: 48 h
Description: as §1

[3] = system: human cervical cancer cell line Hela; assay: In vitro antitumor/anticancer testing (CCK-8), Hela; conditions: 48 h
Description: as §1

[4] = system: human lung cancer cell line A549; assay: In vitro antitumor/anticancer testing (CCK-8), A549; conditions: 48 h
Description: as §1

[5] = system: human glioblastoma cell line U-87MG; assay: In vitro antitumor/anticancer testing (CCK-8), U-87MG; conditions: 48 h
Description: as §1

[6] = system: human mammary gland/duct cancer cell line BT-474; assay: In vitro antitumor/anticancer testing (CCK-8), BT-474; conditions: Homo sapiens, BT-474, 48 h
Description: as §1

[7] = system: human prostate cancer cell line PC-3; assay: In vitro antitumor/anticancer testing (CCK-8), PC-3; conditions: Homo sapiens, 48 h
Description: Each of Tea Product 1 and Conventional Tea Product obtained in section A of this example was used to prepare test tea samples according to the method described below. A proper amount of the respective tea product was added into sterile water to prepare a stock solution with a concentration of 100 mg/mL, followed by using a membrane filter with a pore size of 0.22 μm to conduct vacuum filtration and sterilization. The resulting stock solution was diluted with a respective complete medium shown in Table 3 below to form test tea samples with different concentrations. In other words, the thus obtained test tea samples to be used for treating a respective cancer/tumor cell line shown in Table 3 were prepared using the same complete medium as that for the respective cancer/tumor cell line.
Specifically, each of the aforesaid commercially available agents was subjected to the method described below to prepare comparative test samples. A proper amount of a respective commercially available agent was dissolved in phosphate-buffered saline (PBS) to prepare a stock solution with a concentration of 5 mg/mL, followed by using a membrane filter with a pore size of 0.22 μm to conduct vacuum filtration and sterilization. The resulting stock solution was diluted with a respective complete medium shown in Table 3 below to form comparative test samples with different concentrations. To be specific, the comparative test samples prepared from the respective commercially available agent have the concentrations shown in Table 2 below. The thus obtained comparative test samples to be used for treating a respective cancer/tumor cell line shown in Table 3 were prepared using the same complete medium as that for the respective cancer/tumor cell line.
The following cancer/tumor cells purchased from Chinese Academy of Sciences, Shanghai Institutes for Biological Sciences, Institute of Biochemistry and Cell Biology were used for in vitro antitumor/anticancer testing: human liver cancer cell line HepG2, human ovarian cancer cell line SK-OV-3, human cervical cancer cell line Hela, human lung cancer cell line A549, human glioblastoma cell line U-87MG, human mammary gland/duct cancer cell line BT-474, human prostate cancer cell line PC-3, human leukemia cell line HL-60, human gastric cancer cell line SMMC-7721, human colon cancer cell line HCT-116, human squamous cell carcinoma cell line A431, human leukemia cell line K562, human pancreatic cancer cell line PANC-1, and human gastric cancer cell line BGC-823.
The cultivation of each cancer/tumor cell line is described as follows. The cancer/tumor cancer cells were cultivated in the respective complete medium supplemented with 100 μg/mL penicillin and 100 μg/mL streptomycin in an incubator (37° C., 100% relative humidity, 5% CO2). When adherent cancer/tumor cells reached 80% confluence during the log-phase, cell detachment was conducted using 0.6 mL of 0.3% trypsin. Afterwards, a cell suspension having a cell density of 1.0×10^4 cells/mL was prepared. 100 μL of the cell suspension (i.e. 1000 cancer/tumor cells) was added into wells of a 96-well plate (Cat. No. 3599, Corning Costar), followed by cultivation in an incubator (37° C., 100% relative humidity, 5% CO2) for 24 hours.
As experimental groups, the tumor/cancer cells of each cell line were treated with the test tea samples prepared from one or more of the tea products and the comparative test samples prepared from one or more of the commercially available agents as obtained in section B of this example (for more detailed information about the tea product(s) and the commercially available product (s) used to treat each cell line, please see Table 4 below). To be specific, 6 to 10 test tea samples prepared from the same tea product and having different concentrations, as well as 6 to 10 comparative test samples prepared from the same commercially available agent and having different concentrations, were utilized to treat the tumor/cancer cells of each cell line. […]

[8] = 0.125 μg/mL, read-out: Percent growth inhibition
[9] = 0.25 μg/mL, read-out: Percent growth inhibition
[10] = 0.5 μg/mL, read-out: Percent growth inhibition
[11] = 1 μg/mL, read-out: Percent growth inhibition
[12] = 2 μg/mL, read-out: Percent growth inhibition
[13] = 4 μg/mL, read-out: Percent growth inhibition
[14] = 8 μg/mL, read-out: Percent growth inhibition
[15] = 16 μg/mL, read-out: Percent growth inhibition
[16] = 32 μg/mL, read-out: Percent growth inhibition

Structure (SMILES): COc1cc([C@@H]2c3cc4c(cc3[C@@H](O[C@@H]3O[C@@H]5CO[C@@H](C)O[C@H]5[C@H](O)[C@H]3O)[C@H]3COC(=O)[C@H]23)OCO4)cc(OC)c1O [Etoposide]
- inhibition at 0.125 µg/mL [1, 8]: 62.4%
- inhibition at 0.25 µg/mL [1, 9]: 73.6%
- inhibition at 0.5 µg/mL [1, 10]: 82.9%
- inhibition at 1 µg/mL [1, 11]: 97.8%
- inhibition at 2 µg/mL [1, 12]: 100%
- inhibition at 4 µg/mL [1, 13]: 100%
- inhibition at 8 µg/mL [1, 14]: 100%
- inhibition at 16 µg/mL [1, 15]: 101%
- inhibition at 32 µg/mL [1, 16]: 100%
- IC50 ([1]; read-out: IC50): 0.0855 µg/mL (≈ 0.145 µM)

Structure (SMILES): N.N.[Cl][Pt][Cl] [Cisplatin]
- Percent growth inhibition ([2]; 0.0625 μg/mL): 5.63%
- Percent growth inhibition ([2]; 0.125 μg/mL): 6.86%
- Percent growth inhibition ([2]; 0.25 μg/mL): 13.36%
- Percent growth inhibition ([2]; 0.5 μg/mL): 28.16%
- Percent growth inhibition ([2]; 1 μg/mL): 51.92%
- Percent growth inhibition ([2]; 2 μg/mL): 65.87%
- Percent growth inhibition ([2]; 4 μg/mL): 81.38%
- Percent growth inhibition ([2]; 8 μg/mL): 88.36%
- Percent growth inhibition ([2]; 16 μg/mL): 83.65%
- IC50 ([2]; SK-OV-3): IC50 (μg/mL) = 1.112
- Percent growth inhibition ([3]; 0.0625 μg/mL): −3.05%
- Percent growth inhibition ([3]; 0.125 μg/mL): −7.31%
- Percent growth inhibition ([3]; 0.25 μg/mL): −11.93%
- Percent growth inhibition ([3]; 0.5 μg/mL): −33.69%
- Percent growth inhibition ([3]; 1 μg/mL): −29.75%
- Percent growth inhibition ([3]; 2 μg/mL): 16.62%
- Percent growth inhibition ([3]; 4 μg/mL): 90.1%
- Percent growth inhibition ([3]; 8 μg/mL): 98.3%
- Percent growth inhibition ([3]; 16 μg/mL): 98.98%
- IC50 ([3]; Hela): IC50 (μg/mL) = 2.656
- Percent growth inhibition ([4]; 0.125 μg/mL): 6.73%
- Percent growth inhibition ([4]; 0.25 μg/mL): 8.55%
- Percent growth inhibition ([4]; 0.5 μg/mL): 14.21%
- Percent growth inhibition ([4]; 1 μg/mL): 29.60%
- Percent growth inhibition ([4]; 3 μg/mL): 88.98%
- Percent growth inhibition ([4]; 4 μg/mL): 57.57%
- Percent growth inhibition ([4]; 7 μg/mL): 36.60%
- Percent growth inhibition ([4]; 16 μg/mL): 97.45%
- IC50 ([4]; A549): IC50 (μg/mL) = 2.503
- Percent growth inhibition ([5]; 0.0625 μg/mL): 2.27%
- Percent growth inhibition ([5]; 0.125 μg/mL): 1.91%
- Percent growth inhibition ([5]; 0.25 μg/mL): 0.10%
- Percent growth inhibition ([5]; 0.5 μg/mL): 2.72%
- Percent growth inhibition ([5]; 1 μg/mL): 20.84%
- Percent growth inhibition ([5]; 2 μg/mL): 43.00%
- Percent growth inhibition ([5]; 4 μg/mL): 63.60%
- Percent growth inhibition ([5]; 8 μg/mL): 85.10%
- Percent growth inhibition ([5]; 16 μg/mL): 76.01%
- IC50 ([5]; U-87MG): IC50 (μg/mL) = 2.751

Structure (SMILES): COc1cccc2c1C(=O)c1c(O)c3c(c(O)c1C2=O)C[C@@](O)(C(=O)CO)C[C@@H]3O[C@H]1C[C@H](N)[C@@H](O)[C@H](C)O1 [Epirubicin]
- inhibition at 0.015625 µg/mL ([6]; 0.015625 μg/mL, read-out: Percent growth inhibition): 8.91%
- inhibition at 0.03125 µg/mL ([6]; 0.03125 μg/mL, read-out: Percent growth inhibition): 1.2%
- inhibition at 0.0625 µg/mL ([6]; 0.0625 μg/mL, read-out: Percent growth inhibition): 2.5%
- inhibition at 0.125 µg/mL [6, 8]: 6.31%
- inhibition at 0.25 µg/mL [6, 9]: 17.4%
- inhibition at 0.5 µg/mL [6, 10]: 22.4%
- inhibition at 1 µg/mL [6, 11]: 33.4%
- inhibition at 2 µg/mL [6, 12]: 53.5%
- inhibition at 4 µg/mL [6, 13]: 72.6%
- IC50 ([6]; read-out: IC50): 1.7 µg/mL (≈ 3.14 µM)
- inhibition at 0.125 µg/mL [7, 8]: 32.7%
- inhibition at 0.25 µg/mL [7, 9]: 48%
- inhibition at 0.5 µg/mL [7, 10]: 55.1%
- inhibition at 1 µg/mL [7, 11]: 66.1%
- inhibition at 2 µg/mL [7, 12]: 74%
- inhibition at 4 µg/mL [7, 13]: 82%
- inhibition at 8 µg/mL [7, 14]: 82.8%
- inhibition at 16 µg/mL [7, 15]: 81.6%
- inhibition at 32 µg/mL [7, 16]: 85.6%
- IC50 ([7]; PC-3, read-out: IC50): 0.334 µg/mL (≈ 0.614 µM)
